In the NIST ThermoML archive (doi:10.1021/je101178u):
“And” between values parts separate entries of the source, which are not always exact repeats. Equal values may be shown once. ± gives the expanded uncertainty stated by the source.

Details: 423.15 K, Fluid (supercritical or subcritical phases); for viscosity: vibrating wire; for mass density: Buoyancy - hydrostatic balance with magnetic suspension - one sinker

CC [ethane]
Details	mass density	viscosity [mPa·s]
4555.3 kPa	–	0.01396 ± 8.4e-05
5910.6 kPa	58.665 ± 0.13 kg/m3	0.01454 ± 8.7e-05
5914.3 kPa	58.707 ± 0.13 kg/m3	0.01455 ± 8.7e-05
6746.2 kPa	68.424 ± 0.15 kg/m3	0.01497 ± 9e-05
6746.9 kPa	68.432 ± 0.15 kg/m3	0.01497 ± 9e-05
7528 kPa	77.889 ± 0.18 kg/m3	0.01542 ± 9.3e-05
7530.1 kPa	77.915 ± 0.18 kg/m3	0.01542 ± 9.3e-05
8298.5 kPa	87.517 ± 0.2 kg/m3	0.0159 ± 9.6e-05
8300.8 kPa	87.546 ± 0.2 kg/m3	0.0159 ± 9.6e-05
9235.9 kPa	99.586 ± 0.24 kg/m3	0.01656 ± 0.0001
9238.5 kPa	99.621 ± 0.24 kg/m3	0.01656 ± 0.0001
10732 kPa	119.465 ± 0.29 kg/m3	0.01774 ± 0.00011
10733 kPa	119.476 ± 0.29 kg/m3	0.01775 ± 0.00011
12215 kPa	139.509 ± 0.34 kg/m3	0.0191 ± 0.00012
12218 kPa	139.549 ± 0.34 kg/m3	0.01909 ± 0.00012
13727 kPa	159.706 ± 0.4 kg/m3	0.02062 ± 0.00013
13728 kPa	159.722 ± 0.4 kg/m3	0.02062 ± 0.00013
15325 kPa	180.142 ± 0.45 kg/m3	0.02234 ± 0.00014
15327 kPa	180.168 ± 0.45 kg/m3	0.02234 ± 0.00014
16990 kPa	199.904 ± 0.49 kg/m3	0.0242 ± 0.00015
16991 kPa	199.911 ± 0.49 kg/m3	0.02421 ± 0.00015
16992 kPa	199.925 ± 0.49 kg/m3	0.0242 ± 0.00015
18872 kPa	220.003 ± 0.54 kg/m3	0.02632 ± 0.00016
18874 kPa	220.02 ± 0.54 kg/m3	0.02632 ± 0.00016
18878 kPa	220.065 ± 0.54 kg/m3	0.02633 ± 0.00016
21034 kPa	240.207 ± 0.58 kg/m3 and 240.204 ± 0.58 kg/m3	0.0287 ± 0.00017
23414 kPa	259.265 ± 0.61 kg/m3	0.03119 ± 0.00019
23415 kPa	259.275 ± 0.61 kg/m3	0.0312 ± 0.00019
26527 kPa	280.132 ± 0.66 kg/m3	0.03425 ± 0.00021
26529 kPa	280.144 ± 0.66 kg/m3	0.03424 ± 0.00021
30162 kPa	300.101 ± 0.72 kg/m3	0.03757 ± 0.00023
30174 kPa	300.162 ± 0.72 kg/m3	0.03757 ± 0.00023
30181 kPa	300.195 ± 0.72 kg/m3	0.03756 ± 0.00023
30183 kPa	300.204 ± 0.72 kg/m3	0.03758 ± 0.00023
